From patent US20140271604A1, “HDAC Inhibitor Polymorphic Forms and Methods of Use” (priority 2013, published 2014)
One block for each compound: values may come before it.

What was measured:
[1] = Stability study in climate chamber (48-72 h, 40° C./75% RH), form assigned by XRPD; settings: for XRPD Form c: form assigned after the stability studies / XRPD Form b: form assigned after the stability studies: at 40° C./75% RH; for Stability after storage in a climate chamber / XRPD pattern following storage exposure in the climate chamber: 48 to 72 hours at 40 degrees centigrade and 75% relative humidity; for XRPD Form b: form assigned after the stability studies: samples from anti-solvent addition, label = form before stability
Method: Solubility assessment experiments were carried out in a variety of solvents followed by storage in a climate chamber for 48 to 72 hours at 40 degrees centigrade and 75% relative humidity.

[2] = Storage of samples under ambient conditions, form assigned by XRPD; format: physicochemical
[3] = 46-72 H, samples from solvent-drop grinding, Table 8, label = form after grinding
[4] = 1-1.5 weeks ambient, cooling-evaporative crystallization, Table 7, label = form after recrystallization
[5] = 1.5-2 weeks ambient, solvent-drop grinding, Table 8, label = form after grinding
[6] = 48-72 H, samples from cooling-evaporative crystallization, Table 6, label = form after recrystallization
[7] = 48-72 H, samples from cooling-evaporative crystallization, Table 7, label = form after recrystallization
[8] = 1-1.5 weeks ambient, cooling-evaporative crystallization, Table 6, label = form after recrystallization
[9] = 48-72 H, samples from slurry conversion, Table 9, label = form after slurry
[10] = 1-1.5 weeks ambient, slurry conversion, Table 9, label = form after slurry

Structure (SMILES): CC(C)[C@H](C(=O)Nc1ccc(C(=O)NO)cc1)c1ccccc1 [Form L2, (S)—N-hydroxy-4-(3-methyl-2-phenylbutanamido)benzamide]
Stability after storage in a climate chamber [1]: exhibited a particular degree of stability

Structure (SMILES): CC(C)[C@H](C(=O)Nc1ccc(C(=O)NO)cc1)c1ccccc1 [Form D1_wet]
XRPD Form b: form assigned after the stability studies ([1]; 48-72 H, Table 3): Form D2
XRPD Form c: form assigned after the stability studies [1, 6]: Form A_wet**
XRPD Form c: form assigned after the stability studies [1, 7]: Form A + Am*
XRPD Form b: form assigned after storage under ambient conditions [2, 8]: Form D1_wet**
XRPD Form b: form assigned after storage under ambient conditions [2, 4]: Form D1_wet

Structure (SMILES): CC(C)C(C(=O)Nc1ccc(C(=O)NO)cc1)c1ccccc1 (stereo not shown) [Form A + Form F1]
XRPD Form c: form assigned after the stability studies [1, 3]: Form A
XRPD Form b: form assigned after storage under ambient conditions [2, 5]: Form A

Structure (SMILES): CC(C)C(C(=O)Nc1ccc(C(=O)NO)cc1)c1ccccc1 (stereo not shown) [Form Y + Am]
XRPD Form c: form assigned after the stability studies [1, 9]: Form M2
XRPD Form b: form assigned after storage under ambient conditions [2, 10]: Form M2 + Am*

Structure (SMILES): CC(C)[C@H](C(=O)Nc1ccc(C(=O)NO)cc1)c1ccccc1 [Form R, (S)—N-hydroxy-4-(3-methyl-2-phenylbutanamido)benzamide]
XRPD Form c: form assigned after the stability studies [1, 7]: Form A
XRPD Form b: form assigned after storage under ambient conditions [2, 4]: Form R

Structure (SMILES): CC(C)C(C(=O)Nc1ccc(C(=O)NO)cc1)c1ccccc1 (stereo not shown) [Form A3 + Am]
XRPD Form c: form assigned after the stability studies [1, 9]: Form A

Structure (SMILES): CC(C)[C@H](C(=O)Nc1ccc(C(=O)NO)cc1)c1ccccc1 [Form A_minus, (S)—N-hydroxy-4-(3-methyl-2-phenylbutanamido)benzamide]
XRPD Form b: form assigned after the stability studies ([1]; 48-72 H, Table 3): Form A_minus
Stability after storage in a climate chamber [1]: exhibited a particular degree of stability

Structure (SMILES): CC(C)[C@H](C(=O)Nc1ccc(C(=O)NO)cc1)c1ccccc1 [Form X_gel, (S)—N-hydroxy-4-(3-methyl-2-phenylbutanamido)benzamide]
XRPD Form c: form assigned after the stability studies [1, 6]: Form A_wet**
XRPD Form b: form assigned after storage under ambient conditions [2, 8]: Form U2 + Am*

Structure (SMILES): CC(C)C(C(=O)Nc1ccc(C(=O)NO)cc1)c1ccccc1 (stereo not shown) [Form A7 + Am]
XRPD Form c: form assigned after the stability studies [1, 9]: Form A + Am*
XRPD Form b: form assigned after storage under ambient conditions [2, 10]: Form A3 + Am*

Structure (SMILES): CC(C)C(C(=O)Nc1ccc(C(=O)NO)cc1)c1ccccc1 (stereo not shown) [Form A + Form J1]
XRPD Form c: form assigned after the stability studies [1, 7]: Form J1

Structure (SMILES): CC(C)C(C(=O)Nc1ccc(C(=O)NO)cc1)c1ccccc1 (stereo not shown) [Form A2 + Am]
XRPD Form c: form assigned after the stability studies [1, 6]: Form Z_wet**
XRPD Form b: form assigned after storage under ambient conditions [2, 8]: Form U1 + Am

Structure (SMILES): CC(C)[C@H](C(=O)Nc1ccc(C(=O)NO)cc1)c1ccccc1 [Form F4_wet, (S)—N-hydroxy-4-(3-methyl-2-phenylbutanamido)benzamide]
XRPD Form c: form assigned after the stability studies [1, 9]: Form A + Am*
XRPD Form b: form assigned after storage under ambient conditions [2, 10]: Form A + Am*

Structure (SMILES): CC(C)[C@H](C(=O)Nc1ccc(C(=O)NO)cc1)c1ccccc1 [Form T_wet, (S)—N-hydroxy-4-(3-methyl-2-phenylbutanamido)benzamide]
XRPD Form b: form assigned after the stability studies ([1]; 48-72 H, Table 5): Form A

Structure (SMILES): CC(C)C(C(=O)Nc1ccc(C(=O)NO)cc1)c1ccccc1 (stereo not shown) [Form S + Am]
XRPD Form c: form assigned after the stability studies [1, 7]: Form A_plus

Structure (SMILES): CC(C)[C@H](C(=O)Nc1ccc(C(=O)NO)cc1)c1ccccc1 [Form A_min + Form T]
XRPD Form c: form assigned after the stability studies [1, 3]: Form A5a

Structure (SMILES): CC(C)[C@H](C(=O)Nc1ccc(C(=O)NO)cc1)c1ccccc1 [Form G_gel, (S)—N-hydroxy-4-(3-methyl-2-phenylbutanamido)benzamide]
XRPD Form b: form assigned after the stability studies ([1]; 48-72 H, Table 3): Form A + Am*

Structure (SMILES): CC(C)C(C(=O)Nc1ccc(C(=O)NO)cc1)c1ccccc1 (stereo not shown) [Form W + Am]
XRPD Form b: form assigned after the stability studies ([1]; 48-72 H, Table 3): Form A + Form

Structure (SMILES): CC(C)C(C(=O)Nc1ccc(C(=O)NO)cc1)c1ccccc1 (stereo not shown) [Form B1 + Form F5]
XRPD Form b: form assigned after the stability studies ([1]; 48-72 H, Table 3): Form A

Structure (SMILES): CC(C)C(C(=O)Nc1ccc(C(=O)NO)cc1)c1ccccc1 (stereo not shown) [Form A + Form H1]
XRPD Form b: form assigned after the stability studies ([1]; 48-72 H, Table 3): Form A

Now from value to compound, other results behind:

XRPD Form c: form assigned after the stability studies [1, 3]: Form A
XRPD Form b: form assigned after storage under ambient conditions [2, 4]: Form L2
XRPD Form b: form assigned after storage under ambient conditions [2, 5]: Form A
Structure (SMILES): CC(C)[C@H](C(=O)Nc1ccc(C(=O)NO)cc1)c1ccccc1 [Form A3, (S)—N-hydroxy-4-(3-methyl-2-phenylbutanamido)benzamide]

XRPD Form c: form assigned after the stability studies [1, 7]: Form A
XRPD Form b: form assigned after storage under ambient conditions ([2]; 1-1.5 weeks ambient, cooling-evaporative crystallization, Table 7, label = form after recrystallization, slurry in cyclohexane/cyclohexanone): Form B1_wet**
XRPD Form b: form assigned after storage under ambient conditions ([2]; 1-1.5 weeks ambient, cooling-evaporative crystallization, Table 7, label = form after recrystallization, slurry in cyclohexanone/tetrahydrofuran): Form R
Structure (SMILES): CC(C)[C@H](C(=O)Nc1ccc(C(=O)NO)cc1)c1ccccc1 [Form A4, (S)—N-hydroxy-4-(3-methyl-2-phenylbutanamido)benzamide]

XRPD Form c: form assigned after the stability studies [1, 7]: Form A
XRPD Form b: form assigned after storage under ambient conditions [2, 4]: Form A3
Structure (SMILES): CC(C)[C@H](C(=O)Nc1ccc(C(=O)NO)cc1)c1ccccc1 [Form F2, (S)—N-hydroxy-4-(3-methyl-2-phenylbutanamido)benzamide]

XRPD Form c: form assigned after the stability studies [1, 7]: Form M1
XRPD pattern following storage exposure in the climate chamber [1]: remained unchanged
XRPD Form b: form assigned after storage under ambient conditions [2, 4]: Form M1
Structure (SMILES): CC(C)[C@H](C(=O)Nc1ccc(C(=O)NO)cc1)c1ccccc1 [Form M1, (S)—N-hydroxy-4-(3-methyl-2-phenylbutanamido)benzamide]
Stability after storage in a climate chamber [1]: exhibited a particular degree of stability

XRPD Form c: form assigned after the stability studies [1, 3]: Form A5a
XRPD pattern following storage exposure in the climate chamber [1]: remained unchanged
XRPD Form b: form assigned after storage under ambient conditions [2, 5]: Form A5a
Structure (SMILES): CC(C)[C@H](C(=O)Nc1ccc(C(=O)NO)cc1)c1ccccc1 [Form A5a, (S)—N-hydroxy-4-(3-methyl-2-phenylbutanamido)benzamide]
Stability after storage in a climate chamber [1]: exhibited a particular degree of stability

XRPD Form c: form assigned after the stability studies [1, 7]: Form A_plus
XRPD Form b: form assigned after storage under ambient conditions [2, 4]: Form A7
Structure (SMILES): CC(C)[C@H](C(=O)Nc1ccc(C(=O)NO)cc1)c1ccccc1 [Form A7, (S)—N-hydroxy-4-(3-methyl-2-phenylbutanamido)benzamide]

XRPD Form c: form assigned after the stability studies [1, 9]: Form J1
XRPD pattern following storage exposure in the climate chamber [1]: remained unchanged
XRPD Form b: form assigned after storage under ambient conditions ([2]; 1-1.5 weeks ambient, cooling-evaporative crystallization, Table 7, label = form after recrystallization, slurry in dimethoxyethane/methanol): Form J2
XRPD Form b: form assigned after storage under ambient conditions [2, 10]: Form J1
XRPD Form b: form assigned after storage under ambient conditions [2, 5]: Form J1
Structure (SMILES): CC(C)[C@H](C(=O)Nc1ccc(C(=O)NO)cc1)c1ccccc1 [Form J1, (S)—N-hydroxy-4-(3-methyl-2-phenylbutanamido)benzamide]
Stability after storage in a climate chamber [1]: exhibited a particular degree of stability

XRPD Form c: form assigned after the stability studies [1, 7]: Form M2
XRPD pattern following storage exposure in the climate chamber [1]: remained unchanged
XRPD Form b: form assigned after storage under ambient conditions [2, 4]: Form M2
Structure (SMILES): CC(C)[C@H](C(=O)Nc1ccc(C(=O)NO)cc1)c1ccccc1 [Form M2, (S)—N-hydroxy-4-(3-methyl-2-phenylbutanamido)benzamide]
Stability after storage in a climate chamber [1]: exhibited a particular degree of stability

XRPD Form b: form assigned after the stability studies ([1]; 48-72 H, Table 3): Form A
Structure (SMILES): CC(C)[C@H](C(=O)Nc1ccc(C(=O)NO)cc1)c1ccccc1 [Form A2, (S)—N-hydroxy-4-(3-methyl-2-phenylbutanamido)benzamide]

XRPD Form c: form assigned after the stability studies [1, 7]: Form A
Structure (SMILES): CC(C)[C@H](C(=O)Nc1ccc(C(=O)NO)cc1)c1ccccc1 [Form F3, (S)—N-hydroxy-4-(3-methyl-2-phenylbutanamido)benzamide]
